Results published in patent US20230414634A1, “METHODS FOR TREATING CHOLESTATIC PRURITUS” (GlaxoSmithKline Intellectual Property (No.2) Limited, priority 2020, published 2023).

What was measured:
[1] = tested on: patients with PBC and cholestatic pruritus; experiment: GLIMMER Phase 2b study: safety and tolerability (adverse events, Safety population); type: in vivo, human
Text: Secondary and exploratory endpoints: itch efficacy, quality of life (PBC-40) and pharmacodynamic biomarkers, and safety and tolerability.
In the GLIMMER trial, once daily dosing (QD) was expected to be the optimum dosing regimen. The rationale for QD was as follows: i) it was considered optimal to administer one dose in the morning alone, avoiding administering a dose at night in order to minimise the known side effect of diarrhoea during the night, and ii) one dose per day is generally expected to result in a better patient compliance. The tablet sizes employed in the trial were 10 mg and 45 mg which allowed administration of different dose sizes by combining tablets.
As illustrated in FIG. 1(i), the initial dose sizes were: placebo, 20 mg QD, 90 mg QD and 180 mg QD. Also included was a dose size of 90 mg BID which was evaluated in the earlier Phase 2a study. […] This warranted a further investigation of twice daily dosing. It was decided to add a new 40 mg BID group, and to cease the 20 mg QD dose.

[2] = tested on: PBC patients with pruritus; experiment: Phase 2a crossover clinical study BAT117213 (NCT01899703) of GSK672 versus placebo; type: in vivo, human
Description: A Phase 2a clinical study (NCT01899703; GSK study BAT117213) was carried out to investigate the safety, tolerability, and effect of repeat doses of GSK672 administration in patients with cholestatic pruritus in Primary Biliary Cholangitis (PBC). The results of this study have been summarized and published on clintrials.gov (NCT01899703).
A phase 2 double-blind, randomised, placebo controlled, crossover trial in PBC patients with pruritus was conducted at two specialist PBC centres in the United Kingdom between March 2014 and November 2015. Subjects received oral 45 to 90 mg GSK672 (45 mg BID for Day 1 to 3 and 90 mg BID for Days 4 to 14) and placebo twice daily for 14 days, in a crossover sequence.
The three different itch rating scales were employed: 10-point NRS, 5D Itch Scale and PBC-40.
The primary end point was safety (measured by clinical and laboratory assessments and adverse events (AEs)) and tolerability. Secondary end points were: i) changes in pruritus scores from baseline measured using a 0 to 10 numerical rating scale (NRS) completed twice daily and PBC-40 itch domain scores and 5-D itch scale and ii) changes in serum levels of total bile acids and C4. Serum levels of ATX activity and FGF-19 were measured at baseline and at the end of each treatment period.
An analysis was carried out as to the effect of 90 mg BID. No analysis was carried out as to the effect of 45 mg BID as this dose was administered for Days 1 to 3 in order to ease patients onto the higher 90 mg BID dose.

## CCCC[C@]1(CC)CS(=O)(=O)c2cc(CNC(CC(=O)O)CC(=O)O)c(OC)cc2[C@@H](c2ccccc2)N1 [linerixibat]
[1]; 20 mg QD (N = 14)
  Abdominal distension: number of patients: 0
  Abdominal pain lower: % of patients: (7%)
  Abdominal pain lower: number of patients: 1
  Abdominal pain upper: % of patients: (14%)
  Abdominal pain upper: number of patients: 2
  Abdominal pain: % of patients: (14%)
  Abdominal pain: number of patients: 2
  Adverse events Main Study, ANY EVENT: % of patients: (57%)
  Adverse events Main Study, ANY EVENT: number of patients: 8
  Diarrhoea: % of patients: (36%)
  Diarrhoea: number of patients: 5
  Dry mouth: % of patients: (14%)
  Dry mouth: number of patients: 2
  Flatulence: % of patients: (7%)
  Flatulence: number of patients: 1
  Gastrointestinal disorders, Any event: % of patients: (50%)
  Gastrointestinal disorders, Any event: number of patients: 7
  Gastrooesophageal reflux disease: % of patients: (7%)
  Gastrooesophageal reflux disease: number of patients: 1
  Nausea: % of patients: (7%)
  Nausea: number of patients: 1
  Vomiting: % of patients: (7%)
  Vomiting: number of patients: 1
[1]; 40 mg BID versus higher doses
  gastrointestinal tolerability data: favored 40 mg BID dosing over higher doses
[1]; 90 mg BID (N = 13)
  Abdominal distension: number of patients: 0
  Abdominal pain upper: number of patients: 0
  Abdominal pain: number of patients: 1
  Adverse events Main Study, ANY EVENT: % of patients: (69%)
  Adverse events Main Study, ANY EVENT: number of patients: 9
  Diarrhoea: number of patients: 5
  Dry mouth: number of patients: 0
  Flatulence: number of patients: 0
  Gastrointestinal disorders, Any event: number of patients: 5
  Gastrooesophageal reflux disease: number of patients: 0
  Nausea: % of patients: (15%)
  Nausea: number of patients: 2
  Vomiting: % of patients: (8%)
  Vomiting: number of patients: 1
[1]; 90 mg BID versus 180 mg QD
  tolerability at interim analysis: better tolerated than 180 mg QD
[1]; 90 mg QD (N = 12)
  Abdominal distension: % of patients: (8%)
  Abdominal distension: number of patients: 1
  Abdominal pain lower: % of patients: (8%)
  Abdominal pain lower: number of patients: 1
  Abdominal pain: % of patients: (8%)
  Abdominal pain: number of patients: 1
  Adverse events Main Study, ANY EVENT: % of patients: (75%)
  Adverse events Main Study, ANY EVENT: number of patients: 9
  Diarrhoea: % of patients: (50%)
  Diarrhoea: number of patients: 6
  Dry mouth: % of patients: (8%)
  Dry mouth: number of patients: 1
  Flatulence: number of patients: 0
  Gastrointestinal disorders, Any event: % of patients: (50%)
  Gastrointestinal disorders, Any event: number of patients: 6
  Gastrooesophageal reflux disease: number of patients: 0
  Nausea: number of patients: 0
  Vomiting: number of patients: 0
[1]; 180 mg QD (N = 17)
  Abdominal distension: % of patients: (6%)
  Abdominal pain lower: number of patients: 0
  Abdominal pain upper: % of patients: (6%)
  Abdominal pain: number of patients: 5
  Adverse events Main Study, ANY EVENT: % of patients: (82%)
  Adverse events Main Study, ANY EVENT: number of patients: 14
  Diarrhoea: number of patients: 10
  Dry mouth: number of patients: 0
  Flatulence: % of patients: (6%)
  Gastrointestinal disorders, Any event: number of patients: 14
  Gastrooesophageal reflux disease: number of patients: 0
  Nausea: % of patients: (6%)
  Nausea: number of patients: 1
  Vomiting: % of patients: (12%)
  Vomiting: number of patients: 2
[1]; in vivo
  most common AE: diarrhea
[2]; 90 mg BID, 22 subjects with PBC pruritus
  pruritus severity compared to placebo (NRS, 5D Itch Scale and PBC-40): statistically significant decrease
[2]; 90 mg BID, 14 day crossover
  reduction in itch intensity as compared to placebo: 71%
[2]; 90 mg BID, 95% CI: −0.94 to −0.24
  itch intensity, PBC-40 itch domain, compared to placebo: −0.59
[2]; 90 mg BID, 95% CI: −6.60 to −2.49
  itch intensity, 5-D itch, compared to placebo: −4.55
[2]; 90 mg BID, 95%CI: −2.48 to −0.68
  itch intensity as measured by NRS, compared to placebo: −1.58
[2]; human, in vivo
  fatigue, sleep disturbance and overall disability compared to placebo: Decreases
  time at which reduction of pruritus severity occurred: within the first week
[2]; two weeks of oral twice daily 90 mg
  tolerability: well tolerated
